For data set [1], the system named is HIV-IIIb. The experiment in a line: Test A: Antiviral Assay in MT4 Cells. Conditions: for inhibition at 0.2 µM / inhibition at 2 µM: Human immunodeficiency virus 1, IIIB, comparison with previously published compounds (WO 2013/006738); for inhibition at 0.2 µM: MT4, read-out: Response at 0.2 μM (percent inhibition of virus-induced cell killing), 0.2 μM; for inhibition at 2 µM: MT4, read-out: Response at 2 μM (percent inhibition of virus-induced cell killing), 2 μM; for % inhibition at 0.2 μM (percent inhibition of virus-induced cell killing): 0.2 μM drug concentration; for % inhibition at 0.2 μM (percent inhibition of virus-induced cell killing) / % inhibition at 2 μM (percent inhibition of virus-induced cell killing): MT-4 cells infected with HIV-IIIb, 5 days, calculated from the dose response curve, values above 100 normalized to 100%; for % inhibition at 2 μM (percent inhibition of virus-induced cell killing): 2 μM drug concentration. The data set is classed as cell-based, HIV-1. As for the experimental part:
Test A: Antiviral Assay in MT4 Cells
(§1) MT-4 cells were next mixed with HIV-IIIb at an m.o.i of 0.003 for 1 hour, after which time 35 μL of virus/cell mixture (2000 cells) was immediately added to each well containing 40 μL of diluted compound. The plates were then incubated at 37° C. for 5 days. […] Cell lysis was carried out by incubating at room temperature for 10 min and then chemiluminescence was read.
The data above represent an average over time of each assay for each compound. […] Thus, the data reported in the tables include the data reported in the priority document, as well as data from assays run in the intervening period.

In data set [2] the test system is uninfected MT-4 cells. The experiment in a line: Test B: Cytotoxicity Assay. Format: cell-based. As for the experimental part:
as §1
Test B: Cytotoxicity Assay
Compound cytotoxicity and the corresponding CC50 values was determined using the same protocol as described in the antiviral assay (Test A) except that uninfected cells were used.

The mark [3] stands for this setting: uninfected MT-4 cells, same protocol as Test A, 5 days, read-out: CC50.

Where two headings read alike, the source gives them in different places. A value given as a limit tells only on which side of the number the result lay.

As usually defined, the inhibition is the percentage by which the read-out fell short of the control. Usually CC50 stands for the concentration at which the toxic effect on the cells reaches its halfway point. Usually % inhibition stands for the share of the control response that was lost under treatment.

For the compound `CC(C)(O)C#Cc1ccc(-c2ccc(F)c(C(N)=O)c2)c([C@H](Cc2cc(F)cc(F)c2)NC(=O)Cn2nc(C(F)F)c3c2C(F)(F)CCC3(F)F)n1`, in data set [1], the inhibition at 0.2 µM was 71% and the inhibition at 2 µM stood at 84%.
For the compound `NC(=O)c1cc(-c2ccc(-c3ccc(F)c(C(N)=O)c3)c([C@H](Cc3cc(F)cc(F)c3)NC(=O)Cn3nc(C(F)F)c4c3C(F)(F)CCC4(F)F)n2)ccc1F`, in data set [1], the inhibition at 0.2 µM worked out at 3% and the inhibition at 2 µM came to 58%.
`CC(C)(O)C#Cc1ccc(-c2ccc(F)c(C(N)=O)c2)c([C@H](Cc2cc(F)cc(F)c2)NC(=O)Cn2nc(C(F)(F)F)c3c2C(F)(F)[C@@H]2C[C@H]32)n1`: in data set [1], the inhibition at 0.2 µM came to 96% and the inhibition at 2 µM was found to be 90%.
Regarding `CC(C)(O)C#Cc1ccc(-c2cccc3c2CNC3=O)c([C@H](Cc2cc(F)cc(F)c2)NC(=O)Cn2nc(C(F)(F)F)c3c2C(F)(F)[C@@H]2C[C@H]32)n1` [Compound 15, 2-((3bS,4aR)-5,5-difluoro-3-(trifluoromethyl)-3b,4,4a,5-tetrahydro-1H-cyclopropa[3,4]cyclopenta[1,2-c]pyrazol-1-yl)-N—((S)-2-(3,5-difluorophenyl)-1-(6-(3-hydroxy-3-methylbut-1-yn-1-yl)-3-(1-oxoisoindolin-4-yl)pyridin-2-yl)ethyl)acetamide], the CC50 in data set [2] (setting [3]) is 10.3 µM. For the same compound, in data set [1], the “% inhibition at 0.2 μM (percent inhibition of virus-induced cell killing)” value is recorded as 93% and the “% inhibition at 2 μM (percent inhibition of virus-induced cell killing)” value is 94%.
The compound `Cn1nc(N)c2c(Cl)ccc(-c3ccc(C#CC(C)(C)O)nc3[C@H](Cc3cc(F)cc(F)c3)NC(=O)Cn3nc(C(F)(F)F)c4c3C(F)(F)[C@@H]3C[C@H]43)c21` [Compound 55C] gave a CC50 in data set [2] of 9.56 µM. Besides, in data set [1], the “% inhibition at 0.2 μM (percent inhibition of virus-induced cell killing)” value was 92% and the “% inhibition at 2 μM (percent inhibition of virus-induced cell killing)” value is reported as 92%.
In data set [2], `Cn1nc(N)c2c(C#N)ccc(-c3ccc(C#CC(C)(C)O)nc3[C@H](Cc3cc(F)cc(F)c3)NC(=O)Cn3nc(C(F)F)c4c3C(F)(F)[C@@H]3C[C@H]43)c21` [Compound 77E] had a CC50 of 11.8 µM. Also, in data set [1], the “% inhibition at 0.2 μM (percent inhibition of virus-induced cell killing)” value is given as 96% and the “% inhibition at 2 μM (percent inhibition of virus-induced cell killing)” value is recorded as 97%.
In data set [2], `CCNc1nn(C)c2c(-c3ccc(C#CC(C)(C)O)nc3[C@H](Cc3cc(F)cc(F)c3)NC(=O)Cn3nc(C(F)F)c4c3C(F)(F)[C@@H]3C[C@H]43)ccc(Cl)c12` [Compound 91E] had a CC50 of 9.38 µM. In addition, in data set [1], the “% inhibition at 0.2 μM (percent inhibition of virus-induced cell killing)” value is listed as 100% and the “% inhibition at 2 μM (percent inhibition of virus-induced cell killing)” value is on record as 100%.
For `CC(C)(O)C#Cc1ccc(-c2ccc3nnc(N)n3c2)c([C@H](Cc2cc(F)cc(F)c2)NC(=O)Cn2nc(C(F)F)c3c2C(F)(F)[C@@H]2C[C@H]32)n1` [Compound 105E], in data set [2], the midpoint of cytotoxicity, the CC50, lay at 31.5 µM. Also, the “% inhibition at 2 μM (percent inhibition of virus-induced cell killing)” value in data set [1] is recorded as 74%.
Regarding `CC(C)(O)C#Cc1ccc(-c2ccc(Cl)n3c(N)nnc23)c([C@H](Cc2cc(F)cc(F)c2)NC(=O)Cn2nc(C(F)F)c3c2C(F)(F)[C@@H]2C[C@H]32)n1` [Compound 106E], in data set [2], the CC50 came out at 12.4 µM. Moreover, in data set [1], the “% inhibition at 0.2 μM (percent inhibition of virus-induced cell killing)” value was 95% and the “% inhibition at 2 μM (percent inhibition of virus-induced cell killing)” value is listed as 96%.
For `CC(C)(O)C#Cc1ccc(-c2ccc(Cl)n3c(NS(C)(=O)=O)nnc23)c([C@H](Cc2cc(F)cc(F)c2)NC(=O)Cn2nc(C(F)F)c3c2C(F)(F)[C@@H]2C[C@H]32)n1` [Compound 110E] the same measures were greater than 53.2 µM, 15% and 98%.
In the case of `COc1ccc(-c2ccc(C#CC(C)(C)O)nc2[C@H](Cc2cc(F)cc(F)c2)NC(=O)Cn2nc(C(F)F)c3c2C(F)(F)[C@@H]2C[C@H]32)c2c1c(N)nn2C` [Compound 114G], in data set [2], the CC50 turned out to be 14.8 µM. For the same compound, in data set [1], the “% inhibition at 0.2 μM (percent inhibition of virus-induced cell killing)” value is given as 100% and the “% inhibition at 2 μM (percent inhibition of virus-induced cell killing)” value is recorded as 100%.
`Cc1nc(NS(C)(=O)=O)c2cccc(-c3ccc(C#CC(C)(C)O)nc3[C@H](Cc3cc(F)cc(F)c3)NC(=O)Cn3nc(C(F)F)c4c3C(F)(F)[C@@H]3C[C@H]43)n12` [Compound 120H, 2-((3bS,4aR)-3-(difluoromethyl)-5,5-difluoro-3b,4,4a,5-tetrahydro-1H-cyclopropa[3,4]cyclopenta[1,2-c]pyrazol-1-yl)-N—((S)-2-(3,5-difluorophenyl)-1-(6-(3-hydroxy-3-methylbut-1-yn-1-yl)-3-(3-methyl-1-(methylsulfonamido)imidazo[1,5-a]pyridin-5-yl)pyridin-2-yl)ethyl)acetamide]: the CC50 in data set [2] (setting [3]) came to 11.7 µM.
Consider `Cn1nc(NS(C)(=O)=O)c2c(Cl)ccc(-c3ccc(C#CC(C)(C)N)nc3[C@H](Cc3cc(F)cc(F)c3)NC(=O)Cn3nc(C(F)F)c4c3C(F)(F)[C@@H]3C[C@H]43)c21` [Compound 127, N—((S)-1-(6-(3-amino-3-methylbut-1-yn-1-yl)-3-(4-chloro-1-methyl-3-(methylsulfonamido)-1H-indazol-7-yl)pyridin-2-yl)-2-(3,5-difluorophenyl)ethyl)-2-((3bS,4aR)-3-(difluoromethyl)-5,5-difluoro-3b,4,4a,5-tetrahydro-1H-cyclopropa[3,4]cyclopenta[1,2-c]pyrazol-1-yl)acetamide], for which the CC50 in data set [2] (setting [3]) was found to be 8.76 µM.
On to `Cn1nc(NS(C)(=O)=O)c2c(Cl)ccc(-c3ccc(C#CC(C)(C)N)nc3[C@H](Cc3cc(F)cc(F)c3)NC(=O)Cn3nc(C(F)F)c4c3C(F)(F)[C@@H]3C[C@H]43)c21` [Compound 128B, N—((S)-1-(6-(3-amino-3-methylbut-1-yn-1-yl)-3-(4-chloro-1-methyl-3-(methylsulfonamido)-1H-indazol-7-yl)pyridin-2-yl)-2-(3,5-difluorophenyl)ethyl)-2-((3bS,4aR)-3-(difluoromethyl)-5,5-difluoro-3b,4,4a,5-tetrahydro-1H-cyclopropa[3,4]cyclopenta[1,2-c]pyrazol-1-yl)acetamide], for which, in data set [2] (setting [3]), the CC50 was determined as 4.18 µM. Besides, in data set [1], the “% inhibition at 0.2 μM (percent inhibition of virus-induced cell killing)” value is listed as 93% and the “% inhibition at 2 μM (percent inhibition of virus-induced cell killing)” value is recorded as 94%.
Take `C#Cc1ccc(-c2ccc(Cl)c3cnn(C)c23)c([C@H](Cc2cc(F)cc(F)c2)NC(=O)Cn2nc(C(F)F)c3c2C(F)(F)[C@@H]2C[C@H]32)n1` [Compound 136D, N—((S)-1-(3-(4-chloro-1-methyl-1H-indazol-7-yl)-6-ethynylpyridin-2-yl)-2-(3,5-difluorophenyl)ethyl)-2-((3bS,4aR)-3-(difluoromethyl)-55-difluoro-3b,4,4a,5-tetrahydro-1H-cyclopropa[3,4]cyclopenta[1,2-c]pyrazol-1-yl)acetamide]: it took 7.43 µM to reach half-maximal cytotoxicity in data set [2] (CC50).
Compound `Cn1nc(NS(C)(=O)=O)c2c(Cl)ccc(-c3ccc(C#CC(C)(C)O)nc3[C@H](Cc3cc(F)cc(F)c3)NC(=O)Cn3nc(N)c4c3C(F)(F)[C@@H]3C[C@H]43)c21` [Compound 148B, 2-((3bS,4aR)-3-amino-5,5-difluoro-3b,4,4a,5-tetrahydro-H-cyclopropa[3,4]cyclopenta[1,2-c]pyrazol-1-yl)-N—((S)-1-(3-(4-chloro-1-methyl-3-(methylsulfonamido)-1H-indazol-7-yl)-6-(3-hydroxy-3-methylbut-1-yn-1-yl)pyridin-2-yl)-2-(3,5-difluorophenyl)ethyl)acetamide] registered a CC50 in data set [2] of 23.3 µM. In data set [1], the “% inhibition at 0.2 μM (percent inhibition of virus-induced cell killing)” value was 83% and the “% inhibition at 2 μM (percent inhibition of virus-induced cell killing)” value was 83%.
With `Cn1nc(NS(C)(=O)=O)c2c(Cl)ccc(-c3ccc(C#CC(C)(C)O)nc3[C@H](Cc3cc(F)cc(F)c3)NC(=O)Cn3nc(Cl)c4c3C(F)(F)[C@@H]3C[C@H]43)c21` [Compound 149, N—((S)-1-(3-(4-chloro-1-methyl-3-(methylsulfonamido)-1H-indazol-7-yl)-6-(3-hydroxy-3-methylbut-1-yn-1-yl)pyridin-2-yl)-2-(3,5-difluorophenyl)ethyl)-2-((3bS,4aR)-3-chloro-5,5-difluoro-3b,4,4a,5-tetrahydro-1H-cyclopropa[3,4]cyclopenta[1,2-c]pyrazol-1-yl)acetamide], the CC50 in data set [2] (setting [3]) stood at 26.7 µM.
Turning to `Cn1nc(NS(C)(=O)=O)c2c(Cl)ccc(-c3ccc(C#CC(C)(C)O)nc3[C@H](Cc3cc(F)cc(F)c3)NC(=O)Cn3ncc4c3C(F)(F)[C@@H]3C[C@H]43)c21` [Compound 150, N—((S)-1-(3-(4-chloro-1-methyl-3-(methylsulfonamido)-1H-indazol-7-yl)-6-(3-hydroxy-3-methylbut-1-yn-1-yl)pyridin-2-yl)-2-(3,5-difluorophenyl)ethyl)-2-((3bS,4aR)-5,5-difluoro-3b,4,4a,5-tetrahydro-1H-cyclopropa[3,4]cyclopenta[1,2-c]pyrazol-1-yl)acetamide], the 50% cytotoxic concentration (CC50) in data set [2] (setting [3]) was determined as 28.9 µM.
`Cn1nc(NS(=O)(=O)C(F)(F)F)c2c(Cl)ccc(-c3ccc(C#CC(C)(C)O)nc3[C@H](Cc3cc(F)cc(F)c3)NC(=O)Cn3nc(C(F)F)c4c3C(F)(F)[C@@H]3C[C@H]43)c21` [Compound 171D] gave a CC50 in data set [2] greater than 42.5 µM.

Values taken from patent US9951043B2, “Therapeutic compounds” (Gilead Sciences, Inc., priority 2013, dated 2018).
